Test results: patent US9676997B2, “Compositions and methods for stabilizing luminogenic substrates” (Promega Corporation, priority 2014, dated 2017)

Columns and labels:
Format in all cases: physicochemical
[1] = Stability of 1.25 mM coelenterazine in 50% ethanol and 50% propylene glycol with or without 225 mM ATT, HPLC and Arrhenius plots; conditions: for half-life at 1.25 mM: solution of 50% ethanol and 50% propylene glycol
Procedure: (§1) The stability of coelenterazine in the presence and absence of ATT was measured over time at different temperatures. Specifically, 1.25 mM coelenterazine was present in a solution of 50% ethanol and 50% propylene glycol (i.e., the solution without ATT) or a solution of 50% ethanol and 50% propylene glycol with 225 mM ATT (i.e., the solution with ATT). These two solutions were incubated at −20° C., room temperature (RT), 40° C., or 60° C. and analyzed at 0 days, 1 day, 3 days, 7 days, 15 days, and 30 days.
(§2) Following incubation, high performance liquid chromatography (HPLC) was utilized to identify the components of the respective solutions at each time point. Specifically, an Agilent 1100 HPLC instrument was used and equipped with a quaternary pump, thermostatted autosampler and column compartment, and a G1311B diode-array detector. The column used was a Synergi-MAX-RP (Phenomenex, Torrance, Calif.) 100 AÅ 50×4.6 2.5 μm. The run on the HPLC was a gradient run with 0.1% TFA in water and acetonitrile. Absorbance was measured at 262 nanometers (nm). Standards of coelenterazine and its known degradants were run to confirm both the retention time and absorbance trace. 5 μl of each solution was injected and the retention time of coelenterazine was 3.9 minutes at room temperature.
(§3) The results of the HPLC analysis are shown below in Tables 1 and 2 and FIGS. 1A and 1B, in which the values are reported as relative peak area percentage at 262 nm (i.e., the lamba max of the substrate). […] In each of FIGS. 1A and 1B, diamond is 1.25 mM coelenterazine incubated over time with or without 225 mM ATT, respectively, at −20° C., triangle is 1.25 mM coelenterazine incubated over time with or without 225 mM ATT, respectively, at room temperature (RT), star is 1.25 mM coelenterazine incubated over time with or without 225 mM ATT, respectively, at 40° C., and cross is 1.25 mM coelenterazine incubated over time with or without 225 mM ATT, respectively, at 60° C.
From the HPLC analysis, the half-life of coelenterazine in the presence of ATT at 40° C. and 60° C. was calculated to be 23 days and 5 days, respectively, while the half-life of coelenterazine in the absence of ATT at 40° C. and 60° C. was calculated to be 9.5 days and 2 days, respectively (see Table 3 below).
Additionally, Arrhenius plots were generated for coelenterazine in the presence and absence of ATT to calculate the half-life of coelenterazine at various temperatures. The Arrhenius equation is as follows: […]
In FIG. 7, the slope was −8636.59, the intercept was 24.1199, and R^2 was 0.9983.
In FIG. 8, the slope was −7382.51, the intercept was 21.2598, and R^2 was 0.9570.

[2] = Stability of 1.25 mM coelenterazine-h-h in 50% ethanol and 50% propylene glycol with or without 225 mM ATT, HPLC and Arrhenius plots
Procedure: as §1, with “coelenterazine-h-h” for “coelenterazine”
as §2, with “coelenterazine-h-h” for “coelenterazine”, “coelenterazine-h-h” for “coelenterazine was 3.9 minutes”, “temperature was 5.5 minutes.” for “temperature.”
as §3, with “Tables 7” for “Tables 1”, “and 8” for “and 2”, “FIGS. 3A” for “FIGS. 1A”, “and 3B,” for “and 1B,”, “mM coelenterazine-h-h” for “mM coelenterazine”
From the HPLC analysis, the half-life of coelenterazine-h-h in the presence of ATT at 60° C. was calculated to be 10 days while the half-life of coelenterazine-h-h in the absence of ATT at 40° C. and 60° C. was calculated to be 27 days and 8 days, respectively (see Table 9 below).
Additionally, Arrhenius plots were generated for coelenterazine-h-h in the presence and absence of ATT to calculate the half-life of coelenterazine-h-h at various temperatures. The Arrhenius equation is as follows: […]
In FIG. 11, the slope was −10740.9, the intercept was 30.0575, and R^2 was 0.9967.
In FIG. 12, the […], and R^2 was 0.9648.

[3] = Stability of 2.3 mM furimazine at 37° C. in the dark with or without 200 mM thionucleoside, luminescence with NANOLUC enzyme; conditions: 50% propylene glycol:50% ethanol
Procedure: Specifically, a stock solution of furimazine in 50% propylene glycol:50% ethanol (v/v) was prepared, in which the final concentration of furimazine by absorbance was 4.6 mM. The furimazine stock solution was then diluted 1:1 in 50% propylene glycol:50% ethanol (v/v) to create a control solution without the additives ATT, TAK-0014 and TAK-0002 (i.e., “no additive furimazine” control) and containing 2.3 mM furimazine. 400 mM stock solutions of ATT, TAK-0014 and TAK-0002 were prepared in 50% propylene glycol:50% ethanol (v/v). Each of the ATT, TAK-0014 and TAK-0002 stock solutions was then diluted 1:1 in the 4.6 mM furimazine stock solution to yield solutions containing 200 mM ATT, TAK-0014 or TAK-0002, and 2.3 mM furimazine.
Each sample was separated into multiple amber tubes and incubated at 37° C. in a dark incubator (i.e., in the absence of light). Aliquots were taken from each sample at various time points and stored at −20° C. in the dark (i.e., in the absence of light) until all time points were collected.
To measure luminescence in the aliquots, each aliquot was diluted 1:50 in buffer (NANOGLO buffer, Promega Corporation) to yield 46 μM furimazine. These diluted aliquots were further diluted 1:10 in buffer (NANOGLO buffer, Promega Corporation) to yield 4.6 μM furimazine. 504 of each dilution (i.e., the twice diluted (0.1) aliquots) was mixed with 504, of CO2-independent media+10% fetal bovine serum (FBS) and 0.4 ng/mL luminogenic enzyme (NANOLUC enzyme, Promega Corporation). Luminescence was measured on a luminometer (GLOMAX Multi Plus luminometer, Promega Corporation). Relative light units (RLUs) were normalized for each time point by the RLU value at the 0 days time point. The percent activity from the 0 days time point (i.e., t=0) was plotted against time (days) for each sample as shown in FIG. 15A. In FIG. 15A, B-ATT denoted TAK-0002 and E-ATT denoted TAK-0014.
Error in Table 15 was the standard error from a regression calculation and Fz denoted furimazine, B-ATT denoted TAK-0002, and E-ATT denoted TAK-0014.

[4] = decomposition of coelenterazine
[5] = decomposition of coelenterazine-h-h

O=c1c(Cc2ccc(O)cc2)nc2c(Cc3ccccc3)[nH]c(-c3ccc(O)cc3)cn1-2 [Coelenterazine (27-957-28), coelenterazine]
relative peak area percentage at 262 nm ([1]; 40° C., 0 days): 96.5%
relative peak area percentage at 262 nm ([1]; 40° C., 1 day): 92.2%
relative peak area percentage at 262 nm ([1]; 40° C., 3 days): 84.9%
relative peak area percentage at 262 nm ([1]; 40° C., 15 days): 12.6%
relative peak area percentage at 262 nm ([1]; 60° C., 0 days): 96.5%
relative peak area percentage at 262 nm ([1]; 60° C., 1 day): 79.6%
relative peak area percentage at 262 nm ([1]; 60° C., 3 days): 36.8%
relative peak area percentage at 262 nm ([1]; RT, 0 days): 96.5%
relative peak area percentage at 262 nm ([1]; RT, 1 day): 96.1%
relative peak area percentage at 262 nm ([1]; RT, 3 days): 94.0%
relative peak area percentage at 262 nm ([1]; RT, 7 days): 91.0%
relative peak area percentage at 262 nm ([1]; RT, 15 days): 87.4%
relative peak area percentage at 262 nm ([1]; RT, 30 days): 57.7%
Arrhenius plot intercept [1, 4]: 21.2598
Arrhenius plot slope [1, 4]: −7382.51
half-life at 1.25 mM ([1]; 20° C., read-out: T1/2 Calculated from Arrhenius (converted)): 852 h
half-life at 1.25 mM ([1]; 40° C., read-out: T1/2 Calculated from Arrhenius (converted)): 170 h
half-life at 1.25 mM ([1]; 40° C., read-out: T1/2 Estimated from graph (converted)): 228 h
half-life at 1.25 mM ([1]; 60° C., read-out: T1/2 Calculated from Arrhenius (converted)): 40.8 h
half-life at 1.25 mM ([1]; 60° C., read-out: T1/2 Estimated from graph (converted)): 48 h
half-life at 1.25 mM ([1]; −20° C., read-out: T1/2 Calculated from Arrhenius (converted)): 46500 h
relative peak area percentage at 262 nm ([1]; −20° C., 0 days): 96.5%
relative peak area percentage at 262 nm ([1]; −20° C., 1 day): 97.2%
relative peak area percentage at 262 nm ([1]; −20° C., 3 days): 96.4%
relative peak area percentage at 262 nm ([1]; −20° C., 7 days): 96.5%
relative peak area percentage at 262 nm ([1]; −20° C., 15 days): 96.5%
relative peak area percentage at 262 nm ([1]; −20° C., 30 days): 86.2%

O=c1c(Cc2ccccc2)nc2c(Cc3ccccc3)[nH]c(-c3ccccc3)cn1-2 [Coelenterazine-h-h (1193-25-1), coelenterazine-h-h]
relative peak area percentage at 262 nm ([2]; 40° C., 0 days): 98.7%
relative peak area percentage at 262 nm ([2]; 40° C., 1 day): 98.0%
relative peak area percentage at 262 nm ([2]; 40° C., 3 days): 95.1%
relative peak area percentage at 262 nm ([2]; 40° C., 7 days): 89.1%
relative peak area percentage at 262 nm ([2]; 40° C., 15 days): 74.9%
relative peak area percentage at 262 nm ([2]; 40° C., 30 days): 46.0%
relative peak area percentage at 262 nm ([2]; 60° C., 0 days): 98.7%
relative peak area percentage at 262 nm ([2]; 60° C., 1 day): 94.3%
relative peak area percentage at 262 nm ([2]; 60° C., 3 days): 80.0%
relative peak area percentage at 262 nm ([2]; 60° C., 7 days): 59.1%
relative peak area percentage at 262 nm ([2]; 60° C., 15 days): 0.2%
relative peak area percentage at 262 nm ([2]; RT, 0 days): 98.7%
relative peak area percentage at 262 nm ([2]; RT, 1 day): 98.2%
relative peak area percentage at 262 nm ([2]; RT, 3 days): 97.5%
relative peak area percentage at 262 nm ([2]; RT, 7 days): 94.4%
relative peak area percentage at 262 nm ([2]; RT, 15 days): 86.6%
relative peak area percentage at 262 nm ([2]; RT, 30 days): 85.7%
Arrhenius plot intercept [2, 5]: 30.8352
Arrhenius plot slope [2, 5]: −10650.1
half-life at 1.25 mM ([2]; solution in 50% ethanol and 50% propylene glycol, 20° C., read-out: T1/2 Calculated from Arrhenius (converted)): 172 days
half-life at 1.25 mM ([2]; solution in 50% ethanol and 50% propylene glycol, 40° C., read-out: T1/2 Calculated from Arrhenius (converted)): 16.9 days
half-life at 1.25 mM ([2]; solution in 50% ethanol and 50% propylene glycol, 60° C., read-out: T1/2 Calculated from Arrhenius (converted)): 2.2 days
half-life at 1.25 mM ([2]; solution of 50% ethanol and 50% propylene glycol, 40° C., read-out: T1/2 Estimated from graph (converted)): 27 days
half-life at 1.25 mM ([2]; solution of 50% ethanol and 50% propylene glycol, 60° C., read-out: T1/2 Estimated from graph (converted)): 8 days
relative peak area percentage at 262 nm ([2]; −20° C., 0 days): 98.7%
relative peak area percentage at 262 nm ([2]; −20° C., 1 day): 98.6%
relative peak area percentage at 262 nm ([2]; −20° C., 3 days): 98.2%
relative peak area percentage at 262 nm ([2]; −20° C., 7 days): 98.4%
relative peak area percentage at 262 nm ([2]; −20° C., 15 days): 97.9%
relative peak area percentage at 262 nm ([2]; −20° C., 30 days): 98.5%

O=c1[nH]c(=S)[nH]nc1Cc1ccccc1 [TAK-0002, 6-benzyl-3-sulfanyl-1,2,4-triazin-5-ol]
stabilization of furimazine against decomposition in the absence of light [3]: stabilized furimazine against decomposition in the absence of light

CCc1n[nH]c(=S)[nH]c1=O [TAK-0014]
stabilization of furimazine against decomposition in the absence of light [3]: stabilized furimazine against decomposition in the absence of light
